For experiment [1], the system named is Col-IV. Kind of experiment: AcP-IgAN model: renal Col-IV mRNA and protein. The class given is in vivo, B cell-deficient mice. To be noted: AcP-IgAN mice. Here is the method: (§1) B cell-deficient mice (B6.129S2-Igh-6tm1Cgn/J) were obtained from the Academia Sinica (Professor John T. Kung, Institute of Molecular Biology), and maintained at the animal center of the National Defense Medical Center, Taipei, Taiwan. AcP-IgAN was induced in the mice by daily injection of purified IgA anti-phosphorylcholine antibodies and pneumococcal C-polysaccharide (PnC) as described previously (Chao, et al., Kidney Int. 70:283-297; 2006). All animal experiments were performed with the approval of the Institutional Animal Care and Use Committee of The National Defense Medical Center, Taiwan, and were consistent with the NIH Guide for the Care and Use of Laboratory Animals.
(§2) For IHC, formalin fixed and paraffin embedded tissue sections or frozen sections were incubated with against IL-6 (R&D Systems, MN), MCP-1 (Santa Cruz, Calif.), F4/80 (monocytes/macrophages; Serotec, N.C.), collagen IV (Southern Biotech, AL), TGF-β1 (Santa Cruz), phopsho-NFκB p65 (Cell Signaling, MA), CD3 (pan-T cell; Serotec), CD4 (T helper cell; BioLegend, CA), CD8 (cytotoxic T cell), CD11b (macrophages/neutrophils), or CD11c (dendritic cells) (BD Biosciences, CA) antibodies. The FITC-conjugated, Alexa Fluor 488-conjugated (Invitrogen, CA) or horseradish peroxidase (HRP) conjugated secondary antibodies (DAKO, Denmark) were then applied to the sections. Hematoxylin or 4′,6-diamidino-2-phenylindole (DAKO) was used in the counter staining for nuclei.
(§3) Total cortical kidney RNA was extracted with TriZOL reagents (Invitrogen) from cortical tissue of the kidney. For first-strand cDNA synthesis, 1.5 μg of total RNA was used in a single-round reverse transcriptase reaction. The reaction mixture consisted of 0.9 μl of Oligo (dT) 12 to 18 primer, 1.0 mM deoxyribonucleotide triphosphate (dNTP), 1 μl first strand buffer, 0.4 mM dithiothreitol, 80 U of RNaseout recombinant ribonuclease inhibitor, and 300 U of superscript II RNase H (Invitrogen). Real-time PCR was performed on an ABI Prism 7700 Sequence Detection System (Applied Biosystems, CA). […]

The test system of experiment [2] is caspase-1. Put plainly: AcP-IgAN model: renal caspase-1 mRNA and protein. Particulars: AcP-IgAN mice. The class given is in vivo, B cell-deficient mice. Here is the method:
as §1
Total cortical kidney RNA was extracted with TriZOL reagents (Invitrogen) from cortical tissue of the kidney. For first-strand cDNA synthesis, 1.5 μg of total RNA was used in a single-round reverse transcriptase reaction. The reaction mixture consisted of 0.9 μl of Oligo (dT) 12 to 18 primer, 1.0 mM deoxyribonucleotide triphosphate (dNTP), 1 μl first strand buffer, 0.4 mM dithiothreitol, 80 U of RNaseout recombinant ribonuclease inhibitor, and 300 U of superscript II RNase H (Invitrogen). […]
Each protein sample was run on a 10% SDS-PAGE gel. […] The membrane-bound antibody detected was incubated with chemiluminescent reagent plus (PerkinElmer Life Sciences, MA) and captured on x-ray film.

The subject of experiment [3] is nitric oxide (NO). Kind of experiment: AcP-IgAN model: NO levels. The experiment is classed as in vivo, B cell-deficient mice. To be noted: AcP-IgAN mice.
Description: NO levels in serum were detected with NO Detection kit (iNtRON Biotechnology, Seongnam, Korea), based on diazotization (Griess method), according to the manufacturer's instructions.
as §1

For experiment [4], the system named is TGF-β1. Put plainly: AcP-IgAN model: renal TGF-β1 mRNA and protein. The class given is in vivo, B cell-deficient mice. Particulars: AcP-IgAN mice. Here is the method:
as §1, §2, §3

In experiment [5] the test system is superoxide anion. Kind of experiment: FSGS model: superoxide anion / ROS determination (lucigenin, DHE). To be noted: FSGS mice. The class given is in vivo, BALB/c mice. How it is done: Experiments described herein were performed on 8-week-old female BALB/c mice. The FSGS mice were injected intravenously with a single dose of adriamycin (0.1 mg/10 g body weight). The mice were given Compound 1 six hours before adriamycin injection by gavage daily till sacrifice. BALB/c mice intraperitoneal injected with normal saline were used as normal controls, while ASLN mice given vehicle (corn oil) by gavage were used as disease controls. Mice were killed at day 7, 14, or 21 after disease induction, and spleen, renal cortical tissue, and blood samples collected and stored appropriately until analysis. All animal experiments were performed with the ethical approval of the Institutional Animal Care and Use Committee of The National Defense Medical Center, Taiwan and performed according to the ethical rules in the NIH Guide for the Care and Use of Laboratory Animals.
Kidney in-situ superoxide anion production was determined by DHE labeling according to the known method. (Wu, et al., Nephrol Dial Transplant, 2008, 23: 3082-3090, or Ka, et al., J. Am. Soc. Nephrol. 2007, 18:2473-2485) Fluorescent images were quantified by counting the percentage of positive nuclei in the total nuclei per kidney cross section. Sera and kidney tissues were assessed for superoxide anion according to the known method. (Wu, et al., J Pineal Res, 2001, 30: 147-156, or Ka, et al., J. Am. Soc. Nephrol. 2007, 18:2473-2485) For ROS levels of serum, urine, and renal tissue, the samples were incubated with Krebs-HEPES buffer, and lucigenin (Sigma-Aldrich Chemical Co, MO) at 1.25 mM was used as substrate. Luminescence counts were obtained in duplicate at 15 sec intervals by a microplate luminometer (Hidex Microplate Luminometer, Finland), as previously described (Kretzler, et al.,. Virchows Arch, 425: 181-193, 1994). The superoxide anion activity was expressed as relative luminescence units (RLU) per 15 min per mg of organ dry weight (i.e., RUL/15 min/mg) or RLU/15 min/ml.

The test system of experiment [6] is IL-18. Put plainly: AcP-IgAN model: renal IL-18 mRNA and protein. To be noted: AcP-IgAN mice. The class given is in vivo, B cell-deficient mice. How it is done:
as §1
as §3, with “CA). All of the probes and primers were Assays-on-Demand Gene expression products (Applied Biosystems).” for “CA).”

Where [7] appears, read: day 28, vs control AcP-IgAN mice.
The mark [8] stands for this setting: both day 3 and day 28, vs control AcP-IgAN mice.
Where [9] appears, read: day 3 until day 28, real-time PCR.

Turning to `COC1=C(OC)[C@H](O)[C@H](C/C=C(\C)CC/C=C(\C)CCC=C(C)C)[C@@H](C)C1=O` [Compound 1, Antroquinonol], the “renal mRNA levels of Col-IV” value in experiment [1] (day 3) was “basal mRNA levels”. For the same molecule, in experiment [1] (setting [7]), the “Col-IV protein levels in kidney (IHC)” value is listed as “substantially inhibited” and the “renal mRNA expression of Col-IV” value is given as “greatly inhibited”. Further, the “renal increase in caspase-1 protein levels” value in experiment [2] (setting [8]) was “greatly inhibited”. In addition, the “renal mRNA expression levels of caspase-1 (elevation)” value in experiment [2] (setting [9]) is “greatly inhibited”. Also, in experiment [3] (setting [8]), the “urine NO levels” value is listed as “significantly decreased”. Moreover, the “serum levels of NO” value in experiment [3] (day 3, vs control AcP-IgAN mice) is recorded as “no significant difference”. For the same molecule, the “serum levels of NO” value in experiment [3] (setting [7]) is “substantially reduced”. Further, the “renal mRNA levels of TGF-β1” value in experiment [4] (day 3) is reported as “basal mRNA levels”. Besides, in experiment [4] (setting [7]), the “TGF-beta protein levels in kidney (IHC)” value is reported as “substantially inhibited” and the “renal mRNA expression of TGF-β1” value is “greatly inhibited”. Further, the “superoxide anion levels in urine” value in experiment [5] (day 7 to day 21, vs control FSGS mice) is “significantly lowered”. In experiment [5] (day 7 to day 21, vs control FSGS mice, to a level similar to normal control), the “serum superoxide anion levels” value is listed as “effectively attenuated”. The “in-situ ROS production in renal tissue (DHE fluorescence)” value in experiment [5] (day 14 and day 21) is “only very low DHE fluorescence”. In experiment [5] (day 14 and day 21, vs control FSGS mice, to a level similar to normal control), the “superoxide anion levels in the kidney” value is “effectively attenuated”. Moreover, the “renal mRNA expression levels of IL-18 (elevation)” value in experiment [6] (setting [9]) is “greatly inhibited”. Moreover, the “renal IL-18 protein production” value in experiment [6] (only at day 28) is given as “significantly inhibited”.

For the origin of these results see patent publication US10406120B2, “Methods and compositions for treating kidney disorders” (Golden Biotechnology Corporation, priority 2013, dated 2019).
